Source: a melting point compilation (Tetko et al.; mined from patent text by program, amines drawn as free bases though some values may be those of a salt)

| Structure (SMILES) | melting point [°C] |
| --- | --- |
| CCCCCCCCCCCCCCCCCCCCCCCCNc1ccc(C(=O)C(F)(F)F)cc1 | 89 to 90 |
| CN(CCOc1ccc(N)cc1)CCc1ccc(N)cc1 | 73 to 74 |
| OCCCc1cncn1Cc1noc2ccccc12 | 129 to 131 |
| COCc1cc(C(C)(C)C)cc(COC)c1SSc1c(COC)cc(C(C)(C)C)cc1COC | 94 to 95 |
| CCCCCCCc1ccc(-c2ccc(OC)cc2)nc1 | 54.4 to 56.5 |
| CCS(=O)(=O)N[C@H](C(=O)NCc1ccc(O)c(OC)c1)C(C)C | 49 to 50 |
| O=c1c2c(O)c(O)ccc2c2cc(O)c(O)cc2n1Cc1ccc([N+](=O)[O-])cc1 | 258 to 263 |
| Cc1nc2c(cc1CO)CCCC2=Cc1ccccc1 | 102 to 103 |
| COn1c(C)nn(-c2cc(F)c(C#N)cc2Cl)c1=O | 102 |
| NC(=O)CNC(=O)c1cncc(-c2cccc3cc(Cc4cccc(C(F)(F)F)c4)sc23)c1 | 122 to 123 |
| COC(=O)/C=C/n1cnc2ccc(OC)cc2c1=O | 184 to 186 |
| COc1nc2cc(SCCCc3cc4c(cc3O)CC(CCc3ccccc3)O4)ccc2cc1C(=O)O (stereo unspecified) | 157 to 161 |
| COc1cccc2c1nnn2C1CCCCC1 | 118 to 120 |
| O=C1C2=C(NC3(C=N2)OCCO3)c2ccccc21 | 296 to 298 |
| N#Cc1c(N2CCN(C(=O)c3cccs3)CC2)c2cccnc2n(CC2CC2)c1=O | 189 |
| O=C(NC(Nc1c(Nc2cccnc2)c(=O)c1=O)C(F)(F)C(F)(F)F)c1cccc(Cl)c1 (stereo unspecified) | 212 to 213 |
| CC(C)(C)OC(=O)N1CCN(c2ccc(N3C[C@H](CN)OC3=O)cc2F)CC1 | 184 |
| CC1Cc2cc(OCc3ccccc3)c(O)cc2C(=O)C1C (stereo unspecified) | 90 to 93 |
| CCN(CC)C(=O)N1CCc2c([N+](=O)[O-])cc3[nH]c(=O)c(=O)[nH]c3c2C1 | > 300 |
| CCCC(C(=O)OCC)c1ccc(N2Cc3ccccc3C2=N)cc1 (stereo unspecified) | 158 to 160 |
| Cc1cccc(NN)n1 | 54 to 56 |
| Cc1ccc(C(=O)C2=C(O)C(=O)N(c3ncc(S(=O)(=O)c4ccc([N+](=O)[O-])cc4)s3)C2c2cccnc2)cc1 (stereo unspecified) | 211 |
| CCCCCc1c(C(C)C)cc(C(C)C)c(C(C)=O)c1-c1ccc(F)cc1 | 123 to 124 |
| CCOC(=O)Cc1ccc(-c2nc(COc3cc(C(=O)OC)on3)c(C)o2)cc1 | 124 to 126 |
| O=C(Nc1cccc(-n2nc(C(F)(F)F)cc2C(F)(F)F)c1)c1cccc(Cl)c1Cl | 119 to 121 |
| CCCCOC(=O)[C@H]1CN(c2ccc3c(c2)sc(=O)n3CC)C(=O)O1 | 99 to 102 |

| Structure (SMILES) | melting point [°C] |
| --- | --- |
| CN1CCN(C2=Nc3ccccc3N(C)c3cscc32)CC1 | 83 to 85 |
| O=C1OC(Cl)(c2ccc(Cl)cc2)c2ccccc21 (stereo unspecified) | 133 to 135 |
| O=C(O)Cn1cc(Cc2nc3c(F)c(F)cc(F)c3s2)c2cc(OCc3ccccc3)ccc21 | 165 to 168 |
| CCCCCCCCCCCC(=O)OC[C@H]1OCC(=NOCc2ccccc2)[C@@H](O)[C@@H]1O | 45 to 50 |
| CC(O)(C(=O)O)c1ccc2c(c1)Cc1ccccc1-2 (stereo unspecified) | 164 to 168 |
| CC(=C[N+](=O)[O-])NCCN(C)Cc1ccc(Cl)nc1 | 78 to 80 |
| CCOC(=O)/C=C(/c1ccc(OC)cc1)c1cc(C)cc(Cl)c1 | 83 to 85 |
| BrCc1cc(-c2ccccc2)no1 | 87 |
| CC(=O)N[C@H]1CC[C@H](c2ccc([N+](=O)[O-])cc2)CC1 | 221 to 224 |
| CCCc1nn2ncc(C(=O)OCOC(=O)C(C)(C)C)c2n1Cc1ccc(-c2ccccc2-c2nnn[nH]2)cc1 | 157 to 158 |
| C#CCNCC1=Cc2cc(S(N)(=O)=O)sc2S(=O)(=O)N1C(C)C | 133 to 135 |
| CN1C(O)=C(C(=O)Nc2ccc(Cl)cc2)c2cscc2S1(=O)=O | 154 to 156 |
| Cc1cc(-c2ccc(C(F)(F)F)nc2)cc(-c2cccc(-c3cccc(S(N)(=O)=O)c3)n2)n1 | 233 to 234 |
| CNC(=O)C(C(=O)NC(Cc1ccccc1)C(O)CNCC(O)C(Cc1ccccc1)NC(=O)OC(C)(C)C)C(C)(C)C (stereo unspecified) | 117 to 120 |
| O=[N+]([O-])c1cc(Cl)cc(CCc2ccccn2)c1O | 97 to 100 |
| CC1(C)CC(=O)C2=C(C1)NC1=C(C(=O)CC(C)(C)C1)C2c1cccc(Oc2ncccn2)c1 | 220 to 221 |
| Cc1ccc2c(c1)CCO2 | 45 to 48 |
| NC(=O)CCn1c(=S)sc2ccccc21 | 226 to 227 |
| CCN1CCN(CC/C=C/c2ccc3c(Nc4ccc(Sc5nccn5C)c(Cl)c4)c(C#N)cnc3c2)CC1 | 194 to 204 |
| CC1(c2ccc(Cl)c(Cl)c2)CN(C(=O)c2ccc(F)c3ccccc23)CCN1C(=O)CNC1CCN(Cc2ccccc2)CC1 (racemic) | 93 to 96 |
| COC(=O)c1ccc(Cc2c(C(=O)OC)n(-c3ccccc3)c3nc(C)ccc3c2=O)cn1 | 177 to 178 |
| Cc1ccc(Br)c(S(=O)O)c1 | 120 to 122 |
| CCCCCc1ccc(C(=O)CCCC(=O)O)cc1 | 104 to 106 |
| COc1nnc(-c2ccccc2)c(=O)n1N | 165 |
| NC(=O)N(O)CC1=CCC(c2ccccc2)CC1 (stereo unspecified) | 142 to 143 |
| CCc1cc(COc2nn(Cc3ccccc3)cc2C=O)ccc1OCc1nc(-c2ccco2)oc1C | 128 to 129 |

| Structure (SMILES) | melting point [°C] |
| --- | --- |
| COCCOCc1ccc(C#CC2(O)CN3CCC2CC3)c(F)c1 (stereo unspecified) | 117 to 118 |
| Cc1cc(O)c([N+](=O)[O-])c(=O)n1CC(=O)O | 205 |
| O=C(c1ccc(Cl)c(Cl)c1)N1CCCC(c2cc(Br)cc(Br)c2)=N1 | 179 to 182 |
| Cc1cc(O)c(SCc2ccccc2F)c(=O)o1 | 123 to 125 |
| CN(C)CC/C=C1/c2ccccc2COc2ccc(C(=O)O)cc21 | 121 to 123 |
| Cn1cc(Br)cc([N+](=O)[O-])c1=O | 122 to 123 |
| CC(C)(C)OC(=O)CC(Cc1ccccc1)NC(=O)C1Cc2ccccc2N1S(=O)(=O)c1ccc(-c2cccc(C(F)(F)F)c2)cc1 (stereo unspecified) | 50 |
| COc1cncnc1-c1ssc(=S)c1C | 136 |
| Cc1cc(OCc2ccc(-c3ccccc3-c3nnn(C(c4ccccc4)(c4ccccc4)c4ccccc4)n3)cc2)c(C(=O)c2ccccc2)c(C)n1 | 84 to 91 |
| CCCCCCCCCCCCCCCCCCNC(=O)NCCN | 108 to 127 |
| CC(C)[C@H](CCC(=O)O)NC(=O)OC(C)(C)C | 107 to 109 |
| CCCCCC(=O)c1cccc(OCc2ccc3ccccc3c2)c1 | 52 to 55 |
| O=c1ccc(CO)c[nH]1 | 130 |
| CCCCc1nc2cc(C(=O)O)ccc2n1Cc1ccccc1Cl | 238 to 239 |
| Clc1ccc(-c2ccco2)nn1 | 103 to 104 |
| CCN(CC)C(=O)c1cc(OC)cc(OC)c1-c1ccccc1 | 117 to 118 |
| OC1=NC2CCCc3cccc(c32)N1 (stereo unspecified) | 230 to 233 |
| O=C1c2ccccc2OS(=O)N1SC(Cl)(Cl)Cl (stereo unspecified) | 65 to 67 |
| CNC(=O)C(NC(=O)C(CC(=O)O)N1C=CN(c2ccc(-c3ccccc3)cc2)C1)C(C)(C)C (mixture of isomers) | 187 to 188 |
| CCCCN(CCCC)C(=O)CCCC1(C(=O)NCCC)c2ccccc2-c2ccccc21 | 109 to 111 |
| COCN1C(C)=C(C(=O)O)C(c2cccc(Cl)c2Cl)C(C(=O)O)=C1C | 155 to 156 |
| CCCCCCCCCCN(OCc1ccccc1)C(=O)Nc1c(C(C)C)cccc1C(C)C | 91 to 93 |
| O=C(COc1cc(-c2ccccc2)nc2ccccc12)N1CCOCC1 | 145 |
| O=C(O)CCCCCN1C(=O)c2ccc([N+](=O)[O-])cc2C1=O | 140 |
| CC(=O)N[C@@H](C)COc1cnc(-c2nc3ccc(OCC4CC4)cc3o2)c(F)c1 | 158 to 159 |
| CCC1COc2ccccc2C(=O)C1=O (stereo unspecified) | 63 to 66 |

| Structure (SMILES) | melting point [°C] |
| --- | --- |
| CC1=CC(O)C(OC(=O)c2ccccc2)C(C)(C)CC1=O (stereo unspecified) | 99 to 100 |
| CCSc1cc(C)nc(SCC)c1NC(=O)CCCCCCSc1nc2ccccc2[nH]1 | 151 to 156 |
| CSC(C)(C(=O)O)c1ccc2oc(Cc3nc(-c4ccccc4)oc3C)cc2c1 (stereo unspecified) | 178 to 179 |
| Cc1ccc(S(=O)(=O)N2C[C@H]3C[C@@H]2CN3Cc2ccccc2)cc1 | 124 |
| CCCCCCOc1ccc(Nc2ncc(F)c(Nc3ccc4c(c3)OCCO4)n2)cc1 | 115 to 117 |
| O=C(c1cc(Br)cc(Br)c1)c1cc(Br)cc(Br)c1 | 208 to 209 |
| COc1ccccc1C1(C(=O)O)CCCC1 | 116 to 124 |
| COc1cc(NC2CCN(Cc3ccccc3)CC2)ccc1C(N)=O | 155 to 157 |
| Cc1ccc(N(CCN2CCC(C(=O)c3ccc(F)cc3)CC2)C(=O)c2cccc([N+](=O)[O-])c2)cc1 | 131 to 134 |
| COc1cc(OC)c(C2C=CCN(C)C2)c(OC)c1 (stereo unspecified) | 118 to 122 |
| CN(c1cccc2cc(C(N)=O)[nH]c12)S(=O)(=O)c1cccs1 | 244 to 245 |
| Cc1cc2c(s1)S(=O)(=O)NC2=O | 231 |
| COc1cc(OC)nc(Sc2c(NC(=O)C(F)(F)F)nc(C)n2C)n1 | 160 to 162 |
| COC(=O)c1sc2cccc(OC)c2c1N(C)C | 69 to 73 |
| OCCOCCn1c2ccccc2c2ccccc21 | 80 to 81 |
| CCCCCCCCCCCCCCCCCCOC(=O)CCC(=O)OC1CC(C)(C)N(C)C(C)(C)C1 | 38 to 40 |
| CCNC(=O)n1nc(Oc2c(Cl)cc(C(F)(F)F)cc2Cl)c(CC)c1C | 120 to 123 |
| COC(=O)N1CCCCc2cc(C3=NNC(=O)SC3C)ccc21 (stereo unspecified) | 182 |
| CCCC(CCC)N1Cc2c(C(=O)O)cc(N(C)S(C)(=O)=O)cc2C1=O | 206 |
| CCc1cc(Cl)cc2c1NC(C)NS2(=O)=O (stereo unspecified) | 181 to 183 |
| c1ccc(-c2cc(-c3csc(Nc4ccncc4)n3)on2)cc1 | 269 to 270 |
| CN1CC(CN=[N+]=[N-])CC2c3cccc4c3c(cn4C)CC21 (stereo unspecified) | 168 to 169 |
| CC1(C)C(=O)N(CCCN(CCCN2C(=O)c3ccccc3C(C)(C)C2=O)Cc2ccccc2)C(=O)c2ccccc21 | 108 |
